US20210196720A1 (UROVANT SCIENCES GMBH, priority 2018, published 2021)

Tests used:
clinical = details: human, in vivo
[1] = Mass balance study with [14C]vibegron, healthy subjects; details: human plasma, 2 and 4 hr
Source text: The accumulation potential of circulating metabolites in plasma was not estimated due to insufficient data from later time points to enable estimation of half-life.

[2] = Phase 2b OAB study, adverse events
Source text: A placebo group was included in the main study, and a group that received tolterodine monotherapy was included in the main study and in the extension.

[3] = Drug interaction: effect of vibegron on conmed PK; details: human, in vivo, 4 mg
[4] = Phase 2b OAB study, cardiovascular safety (HR, SBP, DBP, orthostatic AEs); type: in vivo, human; details: 4 mg
Source text: None led to discontinuation. The overall incidence of orthostatic symptoms was low.
Small differences in the percent of subjects exceeding categorical heart rate and blood pressure thresholds for vibegron were similar to those in the tolterodine arm.

[5] = cited from earlier work

In the case of C[C@H]1O[C@@H](O[C@H]2[C@@H](O)C[C@H](O[C@H]3[C@@H](O)C[C@H](O[C@H]4CC[C@@]5(C)[C@H](CC[C@@H]6[C@@H]5C[C@@H](O)[C@]5(C)[C@@H](C7=CC(=O)OC7)CC[C@]65O)C4)O[C@@H]3C)O[C@@H]2C)C[C@H](O)[C@@H]1O [Digoxin], the AUC (clinical; 0.25 mg) was 16.6 ng·h/mL.

C#C[C@]1(O)CC[C@H]2[C@@H]3CCc4cc(O)ccc4[C@H]3CC[C@@]21C [EE, ethinyl estradiol] gave an AUC (clinical; 0.03 mg) of 0.81 ng·h/mL and a Cmax (clinical; 0.03 mg) of 0.0719 ng/mL.

In the case of C#C[C@]1(O)CC[C@H]2[C@@H]3CCC4=CC(=O)CC[C@@H]4[C@H]3CC[C@@]21CC [LNG, levonorgestrel], the AUC (clinical; 0.15 mg) was 31 ng·h/mL and the Cmax (clinical; 0.15 mg) was 2.07 ng/mL.

In the case of O=C(O)C1OC(OC(c2ccccc2)C2CCC(Cc3ccc(NC(=O)C4CCc5nccc(=O)n54)cc3)N2)C(O)C(O)C1O (stereo not shown) [M7], the “share of total circulating drug-related material” value [1] was 12-14%.

For Cc1ccc(O)c([C@H](CCN(C(C)C)C(C)C)c2ccccc2)c1 [Tolterodine ER, reference compound], the “Discontinuation due to drug-related AE, subjects” value ([2]; first 12 weeks, dose group by column) was 0 n, the frequency of injuries ([2]; human, in vivo) was 2.1% and the Cmax [3] was 2.28 ng/mL. The “DBP change from baseline, mean (95% CI) max, week 1 to 8” value [4] was 5.19 (4.26, 6.13) mm Hg, the “DBP change from baseline, mean (95% CI), week 1” value [4] was −0.12 (−1.10, 0.86) mm Hg and the “HR change from baseline, mean (95% CI) maximum, week 1 to 8” value [4] was 5.66 (4.69, 6.63) bpm. The “HR change from baseline, mean (95% CI), week 1” value [4] was 0.68 (−0.31, 1.67) bpm, the “SBP change from baseline, mean (95% CI) maximum, week 1 to 8” value [4] was 7.29 (6.01, 8.57) mm Hg and the “SBP change from baseline, mean (95% CI), week 1” value [4] was 0.04 (−1.36, 1.43) mm Hg.

For O=C(O)c1cccc(-c2cccc(NCCNC[C@H](O)c3cccc(Cl)c3)c2)c1 [solabegron], the “number of pain- and discomfort-free days vs placebo” value ([5]; Phase IIa, IBS, females) is listed as “statistically significant increase”, the clinical benefit ([5]; Phase IIa, IBS, male subjects) is listed as “no clinical benefit” and the “bowel function and plasma somatostatin concentration” value ([5]; healthy volunteers) is listed as “no effect”. For the same molecule, the “gastrointestinal or colonic transit” value ([5]; healthy volunteers) was “did not significantly alter”.
